Laboratory results taken from patent US6136336A, “JM216 formulations” (priority 1999, dated 2000).
“Also recorded” adds a separate entry of the source.

What was measured:
[1] = Standard dissolution test (phosphate buffer pH 7.5, 37° C.); assay type: physicochemical; conditions: phosphate buffer 1/15 M
Source text: The present inventors first attempted to reduce the particle size of the JM216 powder obtained from chemical synthesis by grinding or milling it to an amorphous state (as confirmed by x-ray diffraction pattern). The amorphous state indicates the disappearance of particles or crystalline drug and a particle size close to the molecular level. […] The addition of β-cyclodextrin or polymers to the JM216 during the grinding did allow obtaining the drug as an amorphous powder by reduction of the aggregation. […] The ratio of drug:β-cyclodextrin or drug:polymer also has some effect on solubility, with solubility generally increasing at higher β-cyclodextrin:drug or polymer:drug ratios. Ratios of drug:β-cyclodextrin or drug:polymer of from about 1:1 to about 1:15 (w/w) can be used with ratios of from about 1:4 to 1:15 being preferred and ratios of from about 1:9 to about 1:15 being most preferred.
Dissolution test: The ground mixture containing 5 mg. of JM216 was transferred directly into 50 ml of phosphate buffer (1/15 M, pH 7.5) kept at 37° C. and was stirred with a magnetic stirrer bar at 300 rpm. An aliquot of the solution was pipetted at the indicated time intervals and filtered through a 0.45 μm membrane filter. The concentration of the dissolved JM216 was determined by high performance liquid chromatography (HPLC).
Grinding of the JM216:β-cyclodextrin or JM216:polymer mixtures may be accomplished by standard procedures, e.g. automatic mortar and pestle machines or a hybridizer (milling machine). The time needed in the grinding process may be readily determined by simple test (period analysis of the mixture by x-ray diffraction studies). A suitable grinding time with the automatic mortar and pestle machine is three hours and with the hybridizer, five minutes.

[2] = Water-solubility of JM216 at 23° C.; assay type: physicochemical
Source text: Although the oral dosage form of JM216 being pursued in the clinic has obvious advantages over injectable platinum complexes such as cisplatin and carboplatin, it is reported by M. J. McKeage et al in Cancer Chemother. Pharmacol. 36: 451-458 (1995) that the current oral capsule form may have certain pharmacokinetic disadvantages.

[3] = cited from earlier work
[4] = In vitro drug absorption through excised rat rectum (Franz diffusion cell); assay type: in vitro ADME; conditions: listed as JM216 bulk drug (non-amorphous)
Description: The rectum was freshly excised from each rat and was opened lengthwise using scissors. The excised rectum, serous membrane side down, was mounted on a Franz diffusion cell (reservoir volume 10 ml, 7 mm i.d. O ring flange). […] Gentamicin solution (10 mg/ml) was added to the reservoir fluid (phosphate buffer, pH 7.3) in the ratio of 1:100.
The various test samples were incorporated into standard suppository bases and then subjected to the in vitro drug absorption test. […] The suppository samples were prepared by fusion method melting the base at 50° C. for fatty bases or at 75° C. for polyethylene glycol water-soluble base. The drug was incorporated into the base at a concentration of 2 mg/80 mg base. Medium chain fatty acids (or Na salts thereof) and surface active agents were also added at the appropriate level.

[5] = oral capsule, dose levels ≥200 mg/m^2

CC(=O)[O][Pt]([NH2])([Cl])([Cl])([NH]C1CCCCC1)[O]C(C)=O [JM216, bis-acetato-ammine-dichloro-cyclohexylamine-platinum (IV)]
Dissolved JM216 ([1]; 1 Min.): 0.2 mg/mL | Dissolved JM216 ([1]; 5 Min.): 0.3 mg/mL | Dissolved JM216 ([1]; 15 Min.): 0.5 mg/mL | Dissolved JM216 ([1]; 30 Min.): 0.5 mg/mL | Dissolved JM216 ([1]; 60 Min.): 0.5 mg/mL | water-solubility [2]: 300 µg/mL | AUC (dose proportionality) [3, 5]: increased less than proportionally to dose | Cmax (dose proportionality) [3, 5]: increased less than proportionally to dose | interpatient pharmacokinetic variation [3, 5]: greater interpatient pharmacokinetic variation | urinary platinum recovery [3, 5]: reduced urinary platinum recovery | side effects seen with oral dosing ([3]; oral dosing): nausea and vomitting | absorption in the rat rectum model (in words) [4]: little absorbed in the form of a suspension in water or in fatty suppository bases; also recorded: absorbed to some extent when incorporated into the water-soluble base, polyethylene glycol (PEG)
